What all share (assay type): functional
Test [1] relates to Mycobacterium tuberculosis. In words: Antibacterial activity against drug-resistant Mycobacterium tuberculosis isolate 2 after 7 days by resazurin microtiter assay. The following applies: isolate 2, 168 h.
The subject of test [2] is Mycobacterium tuberculosis. In words: Antibacterial activity against drug-resistant Mycobacterium tuberculosis isolate 5 after 7 days by resazurin microtiter assay. The following applies: isolate 5, 168 h. (Alamar Blue is a resazurin reagent that responds to reducing activity.)
In test [3] the test system is Mycobacterium tuberculosis. Put plainly: Antibacterial activity against drug-resistant Mycobacterium tuberculosis isolate 4 after 7 days by resazurin microtiter assay. The following applies: isolate 4, 168 h.
Test [4] deals with Mycobacterium tuberculosis. In words: Antibacterial activity against drug-resistant Mycobacterium tuberculosis isolate 3 after 7 days by resazurin microtiter assay. The following applies: isolate 3, 168 h.
Test [5] relates to Mycobacterium tuberculosis. In words: Antibacterial activity against drug-resistant Mycobacterium tuberculosis isolate 1 after 7 days by resazurin microtiter assay. The following applies: isolate 1, 168 h.

≈ marks a conversion by molar mass, not a printed value.

Usually MIC stands for the lowest concentration found to suppress growth. Read a low MIC as a more susceptible organism.

Consider `NCC[C@H](O)C(=O)N[C@@H]1C[C@H](N)[C@@H](O[C@H]2O[C@H](CN)[C@@H](O)[C@H](O)[C@H]2O)[C@H](O)[C@H]1O[C@H]1O[C@H](CO)[C@@H](O)[C@H](N)[C@H]1O` [AMIKACIN], for which the MIC is 1.6 µM (≈ 0.937 µg/mL) in test [1]; 1.7 µM (≈ 0.996 µg/mL) in test [2]; 0.7 µM (≈ 0.41 µg/mL) in test [3]; 0.4 µM (≈ 0.234 µg/mL) in test [4]; 0.4 µM (≈ 0.234 µg/mL) in test [5].
For `NNC(=O)c1ccncc1` [ISONIAZID], the MIC in test [1], in test [2], in test [3], in test [4] and in test [5] was above 182 µM each time.
`CCCCNc1ccc2c(C(=O)OCC)c(C(C)C)oc2n1`: the MIC in test [1], in test [2], in test [3], in test [4] and in test [5] was above 82.2 µM in each case.
As to `CCOC(=O)c1c(C)oc2nc(N3CCCC3)ccc12`, the MIC in test [1] came to 20.2 µM (≈ 5.54 µg/mL); in test [2], 16.6 µM (≈ 4.55 µg/mL); in test [3], 15.8 µM (≈ 4.33 µg/mL); in test [4], 9.3 µM (≈ 2.55 µg/mL); in test [5], 18.1 µM (≈ 4.97 µg/mL).
Consider `COc1c(N2C[C@@H]3CCCN[C@@H]3C2)c(F)cc2c(=O)c(C(=O)O)cn(C3CC3)c12` [MOXIFLOXACIN], for which the MIC is 0.7 µM (≈ 0.281 µg/mL) in test [1]; 0.4 µM (≈ 0.161 µg/mL) in test [2]; 1.4 µM (≈ 0.562 µg/mL) in test [3]; 0.5 µM (≈ 0.201 µg/mL) in test [4]; 0.3 µM (≈ 0.12 µg/mL) in test [5].
On to `CC[C@@H](CO)NCCN[C@@H](CC)CO` [ETHAMBUTOL], for which the MIC in test [1], in test [2], in test [3], in test [4] and in test [5] was above 122 µM in each case.
For `CO[C@H]1/C=C/O[C@@]2(C)Oc3c(C)c(O)c4c(O)c(c(/C=N/N5CCN(C)CC5)c(O)c4c3C2=O)NC(=O)/C(C)=C\C=C\[C@H](C)[C@H](O)[C@@H](C)[C@@H](O)[C@@H](C)[C@H](OC(C)=O)[C@@H]1C` [RIFAMPIN], the MIC in test [1], in test [2], in test [3] and in test [4] was above 30.4 µM throughout.
Take `N[C@@H]1CONC1=O` [CYCLOSERINE]: the MIC in test [1] was 121 µM (≈ 12.3 µg/mL); in test [2] it was 196 µM (≈ 20.1 µg/mL); in test [3], 167 µM (≈ 17 µg/mL); in test [4] it was above 245 µM; in test [5] it was 242 µM (≈ 24.7 µg/mL).
